Measurements reported in patent US20260356819A1, “OXOISOINDOLINYL-SUBSTITUTED […] DERIVATIVE AND USE THEREOF” (GLUETACS THERAPEUTICS (SHANGHAI) CO., LTD., priority 2023, published 2026).

Key:
Assay type in all cases: cell-based
Conditions in all cases: compounds at 50 nM and 500 nM
WEE1 = biological target: T1, WEE1 (Homo sapiens, UniProt P30291+Q96SW2); test: Western blot degradation of WEE1 in hPBMCs (24 h)
T1 construct: The supernatant was aspirated as the extracted total cell protein; endogenous in cells; host or cells: human peripheral blood mononuclear cells (hPBMCs)
Summary of the method: (§1)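 Thawed human PBMCs, 1×10^6 cells/mL; cpd 50 nM or 500 nM, 24 h; RIPA lysis, BCA, SDS-PAGE, NC transfer, immunoblot. Readout: grayscale/internal control → % remaining; degradation = 1 − remaining.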

IKZF1 = biological target: T2, IKZF1 (Homo sapiens, UniProt Q13422+Q96SW2); test: Western blot degradation of IKZF1 in hPBMCs (24 h)
T2 construct: The supernatant was aspirated as the extracted total cell protein; endogenous in cells; host or cells: human peripheral blood mononuclear cells (hPBMCs)
Summary of the method: as §1

IKZF2 = biological target: T3, IKZF2 (Homo sapiens, UniProt Q96SW2+Q9UKS7); test: Western blot degradation of IKZF2 in hPBMCs (24 h)
T3 construct: The supernatant was aspirated as the extracted total cell protein; endogenous in cells; host or cells: human peripheral blood mononuclear cells (hPBMCs)
Summary of the method: as §1

IKZF3 = biological target: T4, IKZF3 (Homo sapiens, UniProt Q96SW2+Q9UKT9); test: Western blot degradation of IKZF3 in hPBMCs (24 h)
T4 construct: The supernatant was aspirated as the extracted total cell protein; endogenous in cells; host or cells: human peripheral blood mononuclear cells (hPBMCs)
Summary of the method: as §1

CK1α = biological target: T5, CK1α (Homo sapiens, UniProt P48729+Q96SW2); test: Western blot degradation of CK1α in hPBMCs (24 h)
T5 construct: The supernatant was aspirated as the extracted total cell protein; endogenous in cells; host or cells: human peripheral blood mononuclear cells (hPBMCs)
Summary of the method: as §1

GSPT1 = biological target: T6, GSPT1 (Homo sapiens, UniProt P15170+Q96SW2); test: Western blot degradation of GSPT1 in hPBMCs (24 h)
T6 construct: The supernatant was aspirated as the extracted total cell protein; endogenous in cells; host or cells: human peripheral blood mononuclear cells (hPBMCs)
Summary of the method: as §1

T3 sequence (Q9UKS7 whole entry): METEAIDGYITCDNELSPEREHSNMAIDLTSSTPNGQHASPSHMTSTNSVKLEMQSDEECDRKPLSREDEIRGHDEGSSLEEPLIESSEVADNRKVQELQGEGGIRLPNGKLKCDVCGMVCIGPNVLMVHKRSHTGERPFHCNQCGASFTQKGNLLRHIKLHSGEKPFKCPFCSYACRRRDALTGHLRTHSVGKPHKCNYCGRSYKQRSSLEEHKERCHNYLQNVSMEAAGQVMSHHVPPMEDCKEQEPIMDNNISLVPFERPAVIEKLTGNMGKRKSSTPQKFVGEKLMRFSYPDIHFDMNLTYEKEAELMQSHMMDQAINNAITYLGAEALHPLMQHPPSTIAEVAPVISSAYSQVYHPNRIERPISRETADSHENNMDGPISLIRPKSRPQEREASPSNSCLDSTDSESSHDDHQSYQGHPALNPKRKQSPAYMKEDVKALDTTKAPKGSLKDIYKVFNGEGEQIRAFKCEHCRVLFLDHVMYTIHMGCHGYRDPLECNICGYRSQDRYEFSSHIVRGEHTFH
T3 sequence (Q96SW2 whole entry): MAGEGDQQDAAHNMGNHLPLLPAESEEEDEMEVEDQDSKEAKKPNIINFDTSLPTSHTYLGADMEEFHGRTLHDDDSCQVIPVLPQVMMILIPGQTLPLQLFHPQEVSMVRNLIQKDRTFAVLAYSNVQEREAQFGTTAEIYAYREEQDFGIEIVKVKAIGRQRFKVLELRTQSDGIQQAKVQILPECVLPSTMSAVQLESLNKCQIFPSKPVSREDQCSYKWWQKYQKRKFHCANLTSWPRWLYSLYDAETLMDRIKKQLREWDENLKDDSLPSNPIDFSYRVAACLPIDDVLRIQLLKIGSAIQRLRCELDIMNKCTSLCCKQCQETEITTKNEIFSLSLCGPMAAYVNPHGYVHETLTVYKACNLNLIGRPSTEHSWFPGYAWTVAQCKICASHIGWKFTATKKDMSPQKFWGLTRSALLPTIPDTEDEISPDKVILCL
T3 sequence (Q16531 whole entry partner): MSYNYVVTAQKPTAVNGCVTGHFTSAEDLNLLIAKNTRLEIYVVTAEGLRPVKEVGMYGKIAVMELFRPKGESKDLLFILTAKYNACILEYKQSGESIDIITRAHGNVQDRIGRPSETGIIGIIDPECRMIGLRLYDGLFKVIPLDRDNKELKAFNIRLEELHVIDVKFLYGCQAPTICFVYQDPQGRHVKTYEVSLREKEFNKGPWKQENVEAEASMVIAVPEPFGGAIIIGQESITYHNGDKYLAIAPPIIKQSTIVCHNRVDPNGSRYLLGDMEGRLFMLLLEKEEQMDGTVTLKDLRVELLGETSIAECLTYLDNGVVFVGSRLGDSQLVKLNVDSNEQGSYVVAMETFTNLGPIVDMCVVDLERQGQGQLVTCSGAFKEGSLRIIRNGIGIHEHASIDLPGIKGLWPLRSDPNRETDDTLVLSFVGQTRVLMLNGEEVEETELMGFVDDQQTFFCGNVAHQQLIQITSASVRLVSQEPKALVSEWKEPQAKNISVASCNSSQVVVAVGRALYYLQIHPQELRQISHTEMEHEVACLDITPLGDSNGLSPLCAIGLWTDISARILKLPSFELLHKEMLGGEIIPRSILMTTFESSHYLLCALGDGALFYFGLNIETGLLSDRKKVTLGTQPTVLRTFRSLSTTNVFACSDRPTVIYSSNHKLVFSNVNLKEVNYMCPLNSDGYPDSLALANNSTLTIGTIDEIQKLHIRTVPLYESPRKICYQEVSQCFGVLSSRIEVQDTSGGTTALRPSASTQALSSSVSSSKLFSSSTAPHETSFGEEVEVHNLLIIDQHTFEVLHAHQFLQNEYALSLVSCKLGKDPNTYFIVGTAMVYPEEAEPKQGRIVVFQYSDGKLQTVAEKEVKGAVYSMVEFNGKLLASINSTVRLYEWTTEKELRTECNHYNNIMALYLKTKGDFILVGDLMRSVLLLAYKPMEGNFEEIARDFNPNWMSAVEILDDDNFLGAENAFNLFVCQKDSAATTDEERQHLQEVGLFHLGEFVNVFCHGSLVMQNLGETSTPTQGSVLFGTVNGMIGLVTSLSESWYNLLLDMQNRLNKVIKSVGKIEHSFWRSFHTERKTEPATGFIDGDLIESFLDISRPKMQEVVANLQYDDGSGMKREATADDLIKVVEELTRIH
T2 sequence (Q13422 whole entry): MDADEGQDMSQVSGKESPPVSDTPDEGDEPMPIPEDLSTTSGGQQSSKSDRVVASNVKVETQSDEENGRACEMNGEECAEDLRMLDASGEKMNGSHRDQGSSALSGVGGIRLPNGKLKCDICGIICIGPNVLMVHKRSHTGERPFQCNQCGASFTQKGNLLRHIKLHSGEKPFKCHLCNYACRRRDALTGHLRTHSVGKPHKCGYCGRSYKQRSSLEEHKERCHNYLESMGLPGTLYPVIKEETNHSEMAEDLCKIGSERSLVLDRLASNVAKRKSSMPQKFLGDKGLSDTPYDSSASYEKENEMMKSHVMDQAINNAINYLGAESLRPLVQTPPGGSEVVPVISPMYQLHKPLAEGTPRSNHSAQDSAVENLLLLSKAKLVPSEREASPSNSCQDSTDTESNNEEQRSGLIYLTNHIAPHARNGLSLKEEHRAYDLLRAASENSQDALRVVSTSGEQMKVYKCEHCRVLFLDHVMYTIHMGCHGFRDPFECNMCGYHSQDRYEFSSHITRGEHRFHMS
T2 sequence (Q96SW2 whole entry): as the sequence (Q96SW2 whole entry) above
T2 sequence (Q16531 whole entry partner): as the sequence (Q16531 whole entry partner) above
T1 sequence (P30291 whole entry): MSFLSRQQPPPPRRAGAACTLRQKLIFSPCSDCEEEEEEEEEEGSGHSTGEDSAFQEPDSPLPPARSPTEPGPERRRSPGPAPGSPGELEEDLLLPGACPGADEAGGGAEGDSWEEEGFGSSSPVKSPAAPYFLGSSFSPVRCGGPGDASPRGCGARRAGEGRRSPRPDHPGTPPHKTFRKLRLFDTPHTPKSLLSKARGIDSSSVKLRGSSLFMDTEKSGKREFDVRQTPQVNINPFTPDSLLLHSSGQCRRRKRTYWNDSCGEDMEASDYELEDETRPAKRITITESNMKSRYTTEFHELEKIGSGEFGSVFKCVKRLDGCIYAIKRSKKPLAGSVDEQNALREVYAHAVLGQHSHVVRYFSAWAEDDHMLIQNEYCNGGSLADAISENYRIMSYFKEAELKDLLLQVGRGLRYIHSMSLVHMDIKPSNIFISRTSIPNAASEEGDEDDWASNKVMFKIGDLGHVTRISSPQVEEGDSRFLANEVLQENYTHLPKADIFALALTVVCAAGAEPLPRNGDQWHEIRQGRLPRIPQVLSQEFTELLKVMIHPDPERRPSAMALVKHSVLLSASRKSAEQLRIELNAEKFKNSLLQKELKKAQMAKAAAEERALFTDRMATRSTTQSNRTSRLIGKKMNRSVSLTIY
T1 sequence (Q96SW2 whole entry): as the sequence (Q96SW2 whole entry) above
T1 sequence (Q16531 whole entry partner): as the sequence (Q16531 whole entry partner) above
T5 sequence (P48729 whole entry): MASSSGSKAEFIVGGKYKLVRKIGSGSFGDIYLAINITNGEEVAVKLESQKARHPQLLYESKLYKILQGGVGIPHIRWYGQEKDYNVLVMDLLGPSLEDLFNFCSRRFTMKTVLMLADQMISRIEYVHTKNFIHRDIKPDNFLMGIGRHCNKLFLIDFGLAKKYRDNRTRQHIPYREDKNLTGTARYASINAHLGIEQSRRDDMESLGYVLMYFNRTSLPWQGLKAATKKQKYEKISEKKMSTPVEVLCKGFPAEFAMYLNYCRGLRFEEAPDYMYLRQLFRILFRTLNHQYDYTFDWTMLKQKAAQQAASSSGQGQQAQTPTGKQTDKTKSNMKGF
T5 sequence (Q96SW2 whole entry): as the sequence (Q96SW2 whole entry) above
T5 sequence (Q16531 whole entry partner): as the sequence (Q16531 whole entry partner) above
T4 sequence (Q9UKT9 whole entry): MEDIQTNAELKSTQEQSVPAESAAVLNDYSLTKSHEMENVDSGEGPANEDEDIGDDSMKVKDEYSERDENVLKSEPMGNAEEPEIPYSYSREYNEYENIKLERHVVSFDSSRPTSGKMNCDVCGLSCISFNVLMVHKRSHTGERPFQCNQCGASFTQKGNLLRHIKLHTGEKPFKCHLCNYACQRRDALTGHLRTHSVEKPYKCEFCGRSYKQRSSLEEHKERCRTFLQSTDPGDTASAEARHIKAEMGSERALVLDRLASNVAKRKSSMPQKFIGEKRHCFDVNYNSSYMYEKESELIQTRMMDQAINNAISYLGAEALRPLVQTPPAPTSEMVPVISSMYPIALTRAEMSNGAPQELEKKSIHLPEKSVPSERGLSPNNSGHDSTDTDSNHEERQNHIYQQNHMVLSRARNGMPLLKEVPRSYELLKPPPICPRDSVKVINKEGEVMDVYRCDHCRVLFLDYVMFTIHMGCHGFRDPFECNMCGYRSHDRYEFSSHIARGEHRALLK
T4 sequence (Q96SW2 whole entry): as the sequence (Q96SW2 whole entry) above
T4 sequence (Q16531 whole entry partner): as the sequence (Q16531 whole entry partner) above

Row | SMILES | WEE1 substrate protein remaining % (WEE1) | IKZF1 substrate protein remaining % (IKZF1) | IKZF2 substrate protein remaining % (IKZF2) | IKZF3 substrate protein remaining % (IKZF3) | CK1α substrate protein remaining % (CK1α) | GSPT1 substrate protein remaining % (GSPT1)
1 | O=C1CCN(N2C(=O)c3ccc(CN4CCC(c5cccc(Cl)c5Cl)CC4)cc3C2=O)C(=O)N1 [GT-05250, 5-((4-(2,3-dichlorophenyl)piperidin-1-yl)methyl)-2-(2,4-dioxotetrahydropyrimidin-1(2H)-yl)isoindoline-1,3-dione] | B (80%< substrate protein remaining % ≤100%) | B (80%< substrate protein remaining % ≤100%) | A (0% ≤ substrate protein remaining % ≤80%) | B (80%< substrate protein remaining % ≤100%) | B (80%< substrate protein remaining % ≤100%) | B (80%< substrate protein remaining % ≤100%)
2 | O=C1CCN(N2C(=O)c3ccc(CN4C5CC4CN(c4cccc(Cl)c4Cl)C5)cc3C2=O)C(=O)N1 [GT-05251, 5-((3-(2,3-dichlorophenyl)-3,6-diazabicyclo[3.1.1]heptan-6-yl)methyl)-2-(2,4-dioxotetrahydropyrimidin-1(2H)-yl)isoindoline-1,3-dione] | B (80%< substrate protein remaining % ≤100%) | B (80%< substrate protein remaining % ≤100%) | A (0% ≤ substrate protein remaining % ≤80%) | B (80%< substrate protein remaining % ≤100%) | B (80%< substrate protein remaining % ≤100%) | B (80%< substrate protein remaining % ≤100%)
3 | O=C1CCN(N2C(=O)c3ccc(CN4CCn5c(nnc5C(F)(F)F)C4)cc3C2=O)C(=O)N1 [GT-05253, 2-(2,4-dioxotetrahydropyrimidin-1(2H)-yl)-5-((3-(trifluoromethyl)-5,6-dihydro-[1,2,4]triazolo[4,3-a]pyrazin-7 (8H)-yl)methyl)isoindoline-1,3-dione] | B (80%< substrate protein remaining % ≤100%) | B (80%< substrate protein remaining % ≤100%) | B (80%< substrate protein remaining % ≤100%) | B (80%< substrate protein remaining % ≤100%) | B (80%< substrate protein remaining % ≤100%) | A (0% ≤ substrate protein remaining % ≤80%)
4 | O=C1CCN(N2C(=O)c3ccc(CN4CCc5sccc5C4)cc3C2=O)C(=O)N1 [GT-05254, 5-((6,7-dihydrothieno[3,2-c]pyridin-5 (4H)-yl)methyl)-2-(2,4-dioxotetrahydropyrimidin-1(2H)-yl)isoindoline-1,3-dione] | B (80%< substrate protein remaining % ≤100%) | B (80%< substrate protein remaining % ≤100%) | B (80%< substrate protein remaining % ≤100%) | B (80%< substrate protein remaining % ≤100%) | B (80%< substrate protein remaining % ≤100%) | A (0% ≤ substrate protein remaining % ≤80%)
5 | O=C1CCN(N2C(=O)c3ccc(CN4CCC(c5c[nH]c6cc(F)ccc56)CC4)cc3C2=O)C(=O)N1 [GT-05259, 2-(2,4-dioxotetrahydropyrimidin-1(2H)-yl)-5-((4-(6-fluoro-1H-indol-3-yl)piperidin-1-yl)methyl)isoindoline-1,3-dione] | B (80%< substrate protein remaining % ≤100%) | A (0% ≤ substrate protein remaining % ≤80%) | A (0% ≤ substrate protein remaining % ≤80%) | B (80%< substrate protein remaining % ≤100%) | B (80%< substrate protein remaining % ≤100%) | A (0% ≤ substrate protein remaining % ≤80%)
6 | O=C1CCN(N2C(=O)c3ccc(CN4CCC(N5CCc6cc(F)ccc65)CC4)cc3C2=O)C(=O)N1 [GT-05260, 2-(2,4-dioxotetrahydropyrimidin-1(2H)-yl)-5-((4-(5-fluoroindolin-1-yl)piperidin-1-yl)methyl)isoindoline-1,3-dione] | A (0% ≤ substrate protein remaining % ≤80%) | A (0% ≤ substrate protein remaining % ≤80%) | A (0% ≤ substrate protein remaining % ≤80%) | B (80%< substrate protein remaining % ≤100%) | B (80%< substrate protein remaining % ≤100%) | B (80%< substrate protein remaining % ≤100%)
7 | O=C1CCN(N2C(=O)c3ccc(CN4CC=C(c5ccnc6cc(F)ccc56)CC4)cc3C2=O)C(=O)N1 [GT-05261, 2-(2,4-dioxotetrahydropyrimidin-1(2H)-yl)-5-((4-(7-fluoroquinolin-4-yl)-3,6-dihydropyridin-1(2H)-yl)methyl)isoindoline-1,3-dione] | B (80%< substrate protein remaining % ≤100%) | B (80%< substrate protein remaining % ≤100%) | A (0% ≤ substrate protein remaining % ≤80%) | B (80%< substrate protein remaining % ≤100%) | B (80%< substrate protein remaining % ≤100%) | B (80%< substrate protein remaining % ≤100%)
8 | O=C1CCN(N2C(=O)c3ccc(CN4CCN(C(c5ccccc5)c5ccccc5)CC4)cc3C2=O)C(=O)N1 [GT-05267, 5-((4-benzhydrylpiperazin-1-yl)methyl)-2-(2,4-dioxotetrahydropyrimidin-1(2H)-yl)isoindoline-1,3-dione] | B (80%< substrate protein remaining % ≤100%) | B (80%< substrate protein remaining % ≤100%) | B (80%< substrate protein remaining % ≤100%) | A (0% ≤ substrate protein remaining % ≤80%) | A (0% ≤ substrate protein remaining % ≤80%) | A (0% ≤ substrate protein remaining % ≤80%)
9 | O=C1CCN(N2C(=O)c3ccc(CN4CCN(C(c5ccc(F)cc5)c5ccc(F)cc5)CC4)cc3C2=O)C(=O)N1 [GT-05268, 5-((4-(bis(4-fluorophenyl)methyl)piperazin-1-yl)methyl)-2-(2,4-dioxotetrahydropyrimidin-1(2H)-yl)isoindoline-1,3-dione] | B (80%< substrate protein remaining % ≤100%) | B (80%< substrate protein remaining % ≤100%) | B (80%< substrate protein remaining % ≤100%) | A (0% ≤ substrate protein remaining % ≤80%) | A (0% ≤ substrate protein remaining % ≤80%) | A (0% ≤ substrate protein remaining % ≤80%)
10 | O=C1CCN(N2C(=O)c3ccc(CN4CCN(C(c5ccc(Cl)cc5)c5ccc(Cl)cc5)CC4)cc3C2=O)C(=O)N1 [GT-05269, 5-((4-(bis(4-chlorophenyl)methyl)piperazin-1-yl)methyl)-2-(2,4-dioxotetrahydropyrimidin-1(2H)-yl)isoindoline-1,3-dione] | B (80%< substrate protein remaining % ≤100%) | B (80%< substrate protein remaining % ≤100%) | B (80%< substrate protein remaining % ≤100%) | B (80%< substrate protein remaining % ≤100%) | A (0% ≤ substrate protein remaining % ≤80%) | A (0% ≤ substrate protein remaining % ≤80%)
11 | Cc1nc(C2CCN(Cc3ccc4c(c3)C(=O)N(N3CCC(=O)NC3=O)C4=O)CC2)c2ccsc2n1 [GT-05272, 2-(2,4-dioxotetrahydropyrimidin-1(2H)-yl)-5-((4-(2-methylthieno[2,3-d]pyrimidin-4-yl)piperidin-1-yl)methyl)isoindoline-1,3-dione] | B (80%< substrate protein remaining % ≤100%) | B (80%< substrate protein remaining % ≤100%) | A (0% ≤ substrate protein remaining % ≤80%) | B (80%< substrate protein remaining % ≤100%) | B (80%< substrate protein remaining % ≤100%) | B (80%< substrate protein remaining % ≤100%)
12 | Cc1sc2ncnc(C3=CCN(Cc4ccc5c(c4)C(=O)N(N4CCC(=O)NC4=O)C5=O)CC3)c2c1C [GT-05273, 5-((4-(5,6-dimethylthieno[2,3-d]pyrimidin-4-yl)-3,6-dihydropyridin-1(2H)-yl)methyl)-2-(2,4-dioxotetrahydropyrimidin-1(2H)-yl)isoindoline-1,3-dione] | B (80%< substrate protein remaining % ≤100%) | B (80%< substrate protein remaining % ≤100%) | A (0% ≤ substrate protein remaining % ≤80%) | B (80%< substrate protein remaining % ≤100%) | B (80%< substrate protein remaining % ≤100%) | B (80%< substrate protein remaining % ≤100%)
